# Assays:
# Format in all cases: cell-based, human
# [1] = system: CON samples (healthy individuals); assay: FISH replication assay, cultures of healthy individuals (CON) with chromatin modifiers (Example 10); settings: for frequency (%) of SD cells, Mean: CON + AZA (10^-7M), N = 20
# Source text: Cultures were set up from 44 healthy individuals (hereafter called CON) and 20 hematological malignancy patients at diagnosis (hereafter termed CAD). For 20 of the CON samples and all of the CAD samples peripheral in addition to the setting up cultures in the regular growth medium, cultures were set up in medium containing 5-azacytidine (10^−7M; Sigma, USA; hereafter referred to as AZA) a demethylating agent. In addition, cultures from 6 CON and 10 CAD samples were set up in medium containing a deacetylating agents, either Trichostatin A (33 nM; Sigma, USA; hereafter referred to as TSA) or Sodium Butirate (1 nM; Sigma, USA; hereafter referred to as NB), two well described acetylating agents.
# These samples were hybridized with two commercial probes: the AML1 probe (LSI 21, […]) and the α-satellite probe specific for centromere 17 (32-130017, hereafter marked as CEN17). The results are summarized in Table 1 giving the number of samples hybridized with each probe (N), Mean and standard deviation (stdev) as well as the p value obtained using two tailed student's t-test (Microsoft Office 98).
# [2] = system: PHA-stimulated lymphocytes, chromosome 21, 13, 17 and 15; assay: FISH analysis of chromosome losses and gains with and without 5-azacytidine (Example 6); settings: cancerous samples 1-15, presence vs absence of AZA
# Experimental: Each subject donated five ml of peripheral blood. Cell cultures of PHA-stimulated lymphocytes were set up according to standard protocol (Rooney and Czepulkowsli, 1992). Briefly, 0.5 ml of peripheral blood was introduced into a 15 ml test tube containing 5ml F-10 medium supplemented with 20% fetal calf serum, 0.2% heparin, 1% penicillin/streptomycin antibiotic solution (Biological industries, Israel) and 3% phytohemagglutinin (PHA). In addition, all the 15 samples derived from the hematological patients (samples 1-15) and 15 of the 41 samples derived from non-cancerous subjects (samples 16-30) were also grown in the presence of 10^−7M 5-azacytidine (AZA; Sigman, USA) added to the other ingredients described above.
# For the analyses of chromosome losses and gains, at least 200 cells following one-color FISH with each of the chromosome enumerating probes (AML1, RB1, CEN17 and CEN15) were scored for each tested sample, employing the same preparation used for evaluating allelic replication timing. The frequency of cells containing a single signal was used to evaluate the extent of chromosome losses and the frequency of cells with three or more signals were used to assess the level of chromosome gains.
# The mean SD value of five loci (TP53, AML1, RB1, CEN17 and CEN15) and the mean losses and gains value of four loci (AML1, RB1, CEN17 and CEN15) represent each sample. […]
# [3] = system: lymphocytes of prostate cancer patients (CAP) and control subjects (BPH); assay: FISH determination of allelic loss in CAP and BPH lymphocytes with and without 5-azacytidine (Example 7); settings: CAP samples 1-6 and BPH samples 1-6, presence vs absence of AZA
# Experimental: Each sample was set up for short-term culturing in F10 medium supplemented with 20% fetal calf serum (FCS), 3% phytohemagglutinin (PHA), 0.2% heparin, and 1% antibiotics (a standard solution of penicillin and streptomycin). Cultures were incubated at 37° C. for 72 hours and then colchicine (final concentration 0.1 μg/ml) was added to the culture for one hour, followed by hypotonic treatment (0.075 M KC1 at 37° C. for 15 minutes) and four washes each with a fresh cold 3:1 methanol: acetic acid solution. The cell suspensions were stored at −20° C. until used for fluorescence in situ hybridization (FISH). […]
# Slides were analyzed blindly on an Olympus BH2 fluorescent microscope, using a triple band-pass filter (Chroma technology). […] For each sample and for each treatment the frequency of SD, SS and DD cells out of the total population of cells containing two fluorescent signals was recorded (for details please see Dotan et al, Genes, Chromosomes & Cancer 27:270-277, 2000). For the determination of allelic losses at least 200 cells from the same preparation used for replication studied were analyzed for each tested sample. […]
compound,measurement,setting,value
"Nc1ncn([C@@H]2O[C@H](CO)[C@@H](O)[C@H]2O)c(=O)n1 [AZA, 5-azacytidine]","frequency (%) of SD cells, Mean",[1]; AML1 locus,Mean = 21.5%
same,"frequency (%) of SD cells, Mean",[1]; CEN17 locus,Mean = 20.9%
same,replication pattern observed in normal genomes,[1]; cultured cells with chromatin modifier,not affecting
same,"losses and gains values (mean of AML1, RB1, CEN17 and CEN15)",[2],unchanged
same,"frequency of cells showing a loss of one copy of AML1, TP53, CMYC, RB1, D15Z1 and SNRPN",[3],Neither the CAP samples nor the BPH samples were affected
